Source: US11446312B2, “Compounds that modulate von Willebrand factor levels and their use in the treatment of blood disorders” (SOCIETE DES PRODUITS NESTLE S.A., priority 2018, dated 2022)

System: vWF
Assay: Cultured Human Endothelial Cell vWF Expression Assay
Assay type: cell-based
Conditions: human iPSC-derived endothelial cells, 24h treatment, immunofluorescence intensity, vs DMSO control
Experimental: Human induced-pluripotent stem cell derived endothelial cells and accompanying growth media were purchased from Cellular Dynamics International. ECs were cultured according to the manufacturer's protocol (Cellular Dynamics International). ECs were plated at a density of 10′000-15′000 cells/cm^2 in culture vessels which have been coated with fibronectin (Invitrogen) and maintained in a low oxygen incubator (37° C., 5% CO2, 5% O2). The EC maintenance media was exchanged every other day and comprised of VascuLife Basal medium +VascuLife VEGF medium complete kit (Lifeline Cell Technologies). For all experiments ECs of passage 0 or 1 were used. The Celastrol used was a synthetic organic chemical manufactured in the United States and purchased from Novus (catalog reference number NBP2-29362). vWF primary antibody was obtained from Abcam (ab6994), tubulin primary antibody was obtained from Abcam (ab7291), and the secondary antibodies were Alexa fluor (anti-mouse and anti-rabbit) obtained from Thermo Fisher Scientific.
Endothelial cells were plated into 96-well glass-bottom plates at a density of 10,000 cells per well. […] Quantification of the fluorescence intensity (which is indicative of protein levels) was performed using the MetaXpress software. […]
The figure (FIG. 1) depicts the quantification of the data for human endothelial cells treated with celastrol as described above. […]

SMILES: CC1=C(O)C(=O)C=C2C1=CC=C1[C@@]2(C)CC[C@@]2(C)[C@@H]3C[C@](C)(C(=O)O)CC[C@]3(C)CC[C@]12C [Celastrol, 10-Hydroxy-2,4a,6a,9,12b,14a-hexamethyl-11-oxo-1,2,3,4,4a,5,6,6a,11,12b,13,14,14a,14b-tetradecahydro-picene-2-carboxylic acid]
- vWF protein expression (normalized by the expression of tubulin) (1 μM celastrol): significantly (***p<0.001) reduces vWF protein expression
- vWF protein expression (normalized by the expression of tubulin) (10 μM celastrol): significantly (***p<0.001) reduces vWF protein expression
